This assay concerns Severe acute respiratory syndrome coronavirus 2. As to the kind of experiment: Covalent binding affinity to SARS-CoV-2 mutant PLpro Cys111S at 10 uM incubated for 2 hrs by SDS gel analysis.

Active and inactive are the calls of the source. The rule behind the calls is not given here. *1 amine or outer side, *2 acyl side, *3 side chain or, on linkers, in order; H or OH if unused. Where a SMILES comes first, the peptide text is derived from it. Bridges are numbered along the chain shown (N, C = ends). [ ]: non-standard residue; d: D form. The star is where a group is joined. Met(S-mXyl) = C[S+](CC[C@H](N[*:1])C(=O)[*:2])Cc1cccc(C[*:3])c1; X1 = Cc1ccc(N*)cc1C(=O)NC(C)c1cccc2ccccc12

`Cc1ccc(NC(=O)CC[C@H](N)C(=O)N[C@H]2CC[S+](C)Cc3cccc(c3)CSC[C@@H](C(=O)O)NC(=O)CNC(=O)[C@H](CCCNC(=N)N)NC(=O)[C@H](CC(C)C)NC2=O)cc1C(=O)NC(C)c1cccc2ccccc12` (stereo partly specified) (H-E(X1)[Met(S-mXyl)]LRGC-OH; thioether 2-6): the result was inactive.

These data come from ChEMBL document CHEMBL5042515, “Design and Evaluation of a Novel Peptide-Drug Conjugate Covalently Targeting SARS-CoV-2 Papain-like Protease” (J Med Chem, 2022).
